Measured values published in patent US6476079B1, “Devices for the delivery of drugs having antiprogestinic properties” (priority 1999, dated 2002).

Assay: Permeation test of antiprogestins through elastomer membranes (two-compartment diffusion cell)
Type: physicochemical
Details: 37° C.
Experimental: The assay apparatus described in the publication Yie W. Chien, Transdermal Controlled Systemic Medications, Marcel Dekker Inc., New York and Basel 1987, page 173, was used in the tests.
The drug fluxes (permeations) through membranes were measured with a two-compartment diffusion cell at 37° C. (Side-Bi-Side™ diffusion cell, Crown Glass Company). The apparatus consisted of two concentric cells (donor and receptor compartments) that were separated by the elastomer membrane to be investigated. […] A drug solution and solvent (without drug) was added into the donor and the receptor compartments. At each predetermined time interval, samples were withdrawn from the receptor compartment and replaced with the same volume of solvent. The amount of the drug that permeated through the membrane was measured by HPLC. In all measurements, the thickness (0.4 mm) of the membrane and the surface area of the membranes were constant.
In the tests described below, the permeation rates of two different drugs through a 0.4-mm-thick elastomer membrane were measured by using the assay apparatus described above. The tables below show the effect of the concentration of PEO groups (% by weight of the said compositions) on the permeation rates of the different drugs for elastomers prepared from different composition types. The tables show the relative permeation as compared with a commercial crosslinked dimethyl siloxane-vinyl methyl siloxane elastomer (Mn approximately 400,000 g/mol) containing a silica filler.

[1] = composition type A, PEO concentration 4.7 % by weight, 0.4 mm membrane, relative to reference elastomer
[2] = composition type A, PEO concentration 5.1 % by weight, 0.4 mm membrane, relative to reference elastomer
[3] = reference membrane: commercial crosslinked dimethyl siloxane-vinyl methyl siloxane elastomer with silica filler, PEO 0 % by weight, 0.4 mm
[4] = composition type B, PEO concentration 3.1 % by weight, 0.4 mm membrane, relative to reference elastomer
[5] = composition type B, PEO concentration 4.1 % by weight, 0.4 mm membrane, relative to reference elastomer
[6] = composition type B, PEO concentration 5.0 % by weight, 0.4 mm membrane, relative to reference elastomer
[7] = composition type B, PEO concentration 7.5 % by weight, 0.4 mm membrane, relative to reference elastomer
[8] = composition type B, PEO concentration 9.8 % by weight, 0.4 mm membrane, relative to reference elastomer

Relative permeation [7]	Relative permeation (composition type A, PEO concentration 5.3 % by weight, 0.4 mm membrane, relative to reference elastomer)	Compound	Relative permeation [1]	Relative permeation [2]	Relative permeation [3]	Relative permeation [4]	Relative permeation [5]	Relative permeation [6]	Relative permeation [8]	Relative permeation (composition type B, PEO concentration 1.4 % by weight, 0.4 mm membrane, relative to reference elastomer)
		COC[C@]1(OC)CC[C@H]2[C@@H]3CCC4=CC(=O)CCC4=C3[C@@H](c3ccc(/C=N/O)cc3)C[C@@]21C [Compound 1, 4-[17β-methoxy-17α-(methoxymethyl)-3-oxoestra-4,9-dien-11β-yl]benzaldehyde-1-(E)-oxime]	3.5	5.3	1					
		CCSC(=O)O/N=C/c1ccc([C@H]2C[C@@]3(C)[C@@H](CC[C@@]3(COC)OC)[C@@H]3CCC4=CC(=O)CCC4=C32)cc1 [Compound 3]			1				6.4	2.1
16.4		CC(=O)c1ccc([C@H]2C[C@@]3(C)[C@@H](CC[C@@]3(O)C(F)(F)C(F)(F)F)[C@@H]3CCC4=CC(=O)CCC4=C32)cc1 [Compound 4, 11β-(4-Acetylphenyl)-17β-hydroxy-17α-(1,1,2,2,2-pentafluoroethyl)estra-4,9-dien-3-one]			1				27.6	
18.7		CN(C)c1ccc([C@H]2C[C@@]3(C)[C@@H](CC[C@@]3(O)/C=C\CO)[C@@H]3CCC4=CC(=O)CC[C@@H]4[C@H]32)cc1 [Compound 5, Estr-4-en-3-one, 11-[4-(dimethylamino)phenyl]-17-hydroxy-17-(3-hydroxy-1-propenyl)-,[11.beta,17β,17(Z)]-(9CI)]	4.1		1	6.0	6.7	10.7	37.2	
	5.9	(Z)-6′-(4-Cyanophenyl)-17-β-hydroxy-17-α-(3-isovaleryloxy-1-propenyl))-9,11-α-diydro-4′H-naphth [3′,2′,1′:10,9,11]estr-4-en-3-one [Compound 6]	2.9		1					

Compound	Relative permeation [7]	Relative permeation (composition type A, PEO concentration 5.3 % by weight, 0.4 mm membrane, relative to reference elastomer)	Relative permeation [1]	Relative permeation [2]	Relative permeation [3]	Relative permeation [4]	Relative permeation [5]	Relative permeation [6]	Relative permeation [8]	Relative permeation (composition type B, PEO concentration 1.4 % by weight, 0.4 mm membrane, relative to reference elastomer)
CCNC(=O)ON=Cc1ccc(C2CC3(C)C(CCC3(COC)OC)C3CCC4=CC(=O)CCC4=C23)cc1 (stereo not drawn) [Compound 2, 4-[17β-Methoxy-17α-(methoxymethyl)-3-oxoestra-4,9-dien-11β-yl]benzaldehyde-1-[O-(ethylamino)carbonyl]oxime]	11.5		4.1	7.6	1	3.7	4.1	5.8	17.3	
